Source: patent US20080153866A1, “Amorphous Taclolimus Solid Dispersion Having an Enhanced Solubility and Pharmaceutical Composition Comprising Same” (Hinmi Pharm Co., Ltd, priority 2005, published 2008)

What was measured:
[1] = cited from earlier work
[2] = Thermodynamic stability test (endothermic peak in DSC scan); format: physicochemical
Text: The mixture of Comparative Example 1, solid dispersion of Example 1 and crystalline taclolimus were each subjected to a thermodynamic stability test by examining the change in the endothermic peak in its DSC scan. The temperatures representing respective endothermic peaks are represented in Table 17, and the overall DSC results are shown in FIG. 1.

## C=CC[C@@H]1/C=C(\C)C[C@H](C)C[C@H](OC)[C@H]2O[C@@](O)(C(=O)C(=O)N3CCCCC3C(=O)O[C@H](/C(C)=C/C3CC[C@@H](O)[C@H](OC)C3)[C@H](C)[C@@H](O)CC1=O)[C@H](C)C[C@@H]2OC (stereo partly drawn) [Taclolimus, (—)-(1R,9S,13R,14S,17R,18E,21S,23S,24R,25S,27R)-17-allyl-1,14-dihydroxy-12-[(E)-2-[(1R,3R,4R)-4-hydroxy-3-methoxycyclohexyl]-1-methylvinyl]-23,25-dimethoxy-13,19,21,27-tetramethyl-11,28-dioxa-4-azatricyclo[22.3.1.0^4.9]octacos-18-ene-2,3,10,16-tetrone hydrate]
[1]; organic solvents such as anhydrous ethanol
  Solubility in organic solvents: very soluble
[1]; water
  Solubility in water: insoluble in water
[2]
  Endothermic peak temperature: 127.0 °C
